Measured values as given in patent publication US20150274664A1 (MERCK SHARP & DOHME CORP., priority 2012, published 2015).
pEC50: −log10 of the molar value.

The compounds below were run against T1, human GPR119 (Homo sapiens, UniProt Q8TDV5) (assay: Measurement of GPR119 signaling using LANCE 384-well cAMP kit (LCMP assay)). Conditions: HEK293 cells stably transfected with human GPR119.
T1 construct: expressed in transfected cells; host or cells: HEK293
T1 sequence (Q8TDV5 1-335): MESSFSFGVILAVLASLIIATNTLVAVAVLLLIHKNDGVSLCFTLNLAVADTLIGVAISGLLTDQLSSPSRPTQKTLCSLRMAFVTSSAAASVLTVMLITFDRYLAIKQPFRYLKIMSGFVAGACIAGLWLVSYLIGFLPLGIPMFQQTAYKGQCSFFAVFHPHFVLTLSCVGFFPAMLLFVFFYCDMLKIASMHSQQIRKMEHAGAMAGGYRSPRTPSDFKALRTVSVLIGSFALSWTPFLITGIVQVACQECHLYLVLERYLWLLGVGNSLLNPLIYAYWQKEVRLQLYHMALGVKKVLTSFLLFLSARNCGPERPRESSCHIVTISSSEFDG
Format: cell-based
Method in brief: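 HEK293 cells stably expressing human GPR119, in stimulation buffer at pH 7.4 with 100 μM phosphodiesterase inhibitors, exposed to a 10-point compound dilution (2.5% DMSO final) for 45 min. cAMP measured by LANCE TR-FRET at 665 nm against a cAMP standard curve, normalized between DMSO basal and an internal agonist maximum, with a 4-parameter fit.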

| SMILES | pEC50 |
| --- | --- |
| CC(C)c1noc(N2CCC([C@H]3C[C@@H]3CCOc3ccc(CC(=O)N(C)C)c(F)c3)CC2)n1 [Example 75, 2-(2-fluoro-4-(2-((1R,2R)-2-(1-(3-isopropyl-1,2,4-oxadiazol-5-yl)piperidin-4-yl)cyclopropyl)ethoxy)phenyl)-N,N-dimethylacetamide] | 8.09 |
| CC1(OC(=O)N2CCC([C@@H]3C[C@H]3CCOc3ccc(CC(=O)N4CCC4)cc3F)CC2)CC1 [Example 108, 1-methylcyclopropyl 4-((1S,2S)-2-(2-(4-(2-(azetidin-1-yl)-2-oxoethyl)-2-fluorophenoxy)ethyl)cyclopropyl)piperidine-1-carboxylate] | 7.62 |
| CCc1cnc(N2CCC([C@@H]3C[C@H]3CCOc3ccc(CC(=O)N4CCC4)cn3)CC2)nc1 [Example 116, 1-(azetidin-1-yl)-2-(6-(2-((1S,2S)-2-(1-(5-ethylpyrimidin-2-yl)piperidin-4-yl)cyclopropyl)ethoxy)pyridin-3-yl)ethanone] | 8.01 |
| CC(C)c1noc(N2CCC([C@@H]3C[C@H]3CCOc3ccc(CC(=O)N4CCC4)cn3)CC2)n1 [Example 121, 1-(azetidin-1-yl)-2-(6-(2-((1S,2S)-2-(1-(3-isopropyl-1,2,4-oxadiazol-5-yl)piperidin-4-yl)cyclopropyl)ethoxy)pyridin-3-yl)ethanone] | 7.62 |
| CCS(=O)(=O)c1ccc(COC[C@H]2C[C@@H]2C2CCN(c3ncc(COC)cn3)CC2)cc1 [Example 13, 2-(4-((1R,2S)-2-(((4-(ethylsulfonyl)benzyl)oxy)methyl)cyclopropyl)piperidin-1-yl)-5-(methoxymethyl)pyrimidine] | 7.62 |
| CC(C)c1noc(N2CCC([C@H]3C[C@@H]3CCOc3cc(F)cc(F)c3CC(=O)N(C)C)CC2)n1 [Example 122, 2-(2,4-difluoro-6-(2-((1R,2R)-2-(1-(3-isopropyl-1,2,4-oxadiazol-5-yl)piperidin-4-yl)cyclopropyl)ethoxy)phenyl)-N,N-dimethylacetamide] | 7.70 |
| CC(C)c1noc(N2CCC([C@H]3C[C@@H]3CCOc3ccc(-n4cnnn4)cc3F)CC2)n1 [Example 68, 5-(4-((1R,2R)-2-(2-(2-fluoro-4-(1H-tetrazol-1-yl)phenoxy)ethyl)cyclopropyl)piperidin-1-yl)-3-isopropyl-1,2,4-oxadiazole] | 8.46 |
| CCc1cnc(N2CCC([C@H]3C[C@@H]3CCOc3ccc(CC(=O)N4CCC4)c(F)c3)CC2)nc1 [Example 45, 1-(azetidin-1-yl)-2-(4-(2-((1R,2R)-2-(1-(5-ethylpyrimidin-2-yl)piperidin-4-yl)cyclopropyl)ethoxy)-2-fluorophenyl)ethanone] | 9.10 |
| COCc1noc(N2CCC([C@@H]3C[C@H]3CCOc3ccc(-n4cnnn4)cc3F)CC2)n1 [Example 89, 5-(4-((1S,2S)-2-(2-(2-fluoro-4-(1H-tetrazol-1-yl)phenoxy)ethyl)cyclopropyl)piperidin-1-yl)-3-(methoxymethyl)-1,2,4-oxadiazole] | 7.64 |
| CCc1cnc(N2CCC([C@H]3C[C@@H]3CCOc3cc(F)c(CC(=O)N4CCC4)c(F)c3)CC2)nc1 [Example 54, 1-(azetidin-1-yl)-2-(4-(2-((1R,2R)-2-(1-(5-ethylpyrimidin-2-yl)piperidin-4-yl)cyclopropyl)ethoxy)-2,6-difluorophenyl)ethanone] | 9.60 |
| COCc1cnc(N2CCC([C@H]3C[C@@H]3COCc3ccc(S(C)(=O)=O)cc3F)CC2)nc1 [Example 11, 2-(4-((1R,2S)-2-(((2-fluoro-4-(methylsulfonyl)benzyl)oxy)methyl)cyclopropyl)piperidin-1-yl)-5-(methoxymethyl)pyrimidine] | 8.15 |
| CC1(OC(=O)N2CCC([C@H]3C[C@@H]3CCOc3ccc(-n4cnnn4)c(F)c3)CC2)CC1 [Example 106, 1-methylcyclopropyl 4-((1R,2R)-2-(2-(3-fluoro-4-(1H-tetrazol-1-yl)phenoxy)ethyl)cyclopropyl)piperidine-1-carboxylate] | 7.85 |
| CN(C)C(=O)Cc1c(F)cc(OCC[C@H]2C[C@@H]2C2CCN(C(=O)OC3(C)CC3)CC2)cc1F [Example 104, 1-methylcyclopropyl 4-((1R,2R)-2-(2-(4-(2-(dimethylamino)-2-oxoethyl)-3,5-difluorophenoxy)ethyl)cyclopropyl)piperidine-1-carboxylate] | 9.16 |

The remaining compounds from weak to strong by pEC50, led by results:

| pEC50 | SMILES |
| --- | --- |
| 7.74 | CCc1cnc(N2CCC([C@@H]3C[C@H]3CCOc3ccc(S(=O)(=O)CC)cc3F)CC2)nc1 [Example 32, 5-ethyl-2-(4-((1S,2S)-2-(2-(4-(ethylsulfonyl)-2-fluorophenoxy)ethyl)cyclopropyl)piperidin-1-yl)pyrimidine] |
| 7.77 | CCc1cnc(N2CCC([C@H]3C[C@@H]3CCOc3cc(F)cc(F)c3CC(=O)N3CCC3)CC2)nc1 [Example 119, 1-(azetidin-1-yl)-2-(2-(2-((1R,2R)-2-(1-(5-ethylpyrimidin-2-yl)piperidin-4-yl)cyclopropyl)ethoxy)-4,6-difluorophenyl)ethanone] |
| 7.77 | CCS(=O)(=O)c1ccc(OCC[C@@H]2C[C@H]2C2CCN(c3nc(C(C)C)no3)CC2)nc1 [Example 111, 5-(4-((1S ,2S)-2-(2-((5-(ethylsulfonyl)pyridin-2-yl)oxy)ethyl)cyclopropyl)piperidin-1-yl)-3-isopropyl-1,2,4-oxadiazole] |
| 7.80 | CCc1cnc(N2CCC([C@@H]3C[C@H]3CCOc3ccc(S(C)(=O)=O)c(F)c3)CC2)nc1 [Example 31, 5-ethyl-2-(4-((1S,2S)-2-(2-(3-fluoro-4-(methylsulfonyl)phenoxy)ethyl)cyclopropyl)piperidin-1-yl)pyrimidine] |
| 7.82 | CC1(OC(=O)N2CCC([C@@H]3C[C@H]3CCOc3ccc(-n4cnnn4)c(F)c3)CC2)CC1 [Example 105, 1-methylcyclopropyl 4-((1S,2S)-2-(2-(3-fluoro-4-(1H-tetrazol-1-yl)phenoxy)ethyl)cyclopropyl)piperidine-1-carboxylate] |
| 7.89 | CC1(OC(=O)N2CCC([C@H]3C[C@@H]3COCc3ccc(CC(=O)N4CCC4)cc3F)CC2)CC1 [Example 23, 1-methylcyclopropyl 4-((1R,2S)-2-((4-(2-(azetidin-1-yl)-2-oxoethyl)-2-fluorobenzyloxy)methyl)cyclopropyl)piperidine-1-carboxylate] |
| 8.02 | CCc1cnc(N2CCC([C@H]3C[C@@H]3CCOc3ccc(N4CCNC4=O)c(F)c3)CC2)nc1 [Example 43, 1-(4-(2-((1R,2R)-2-(1-(5-ethylpyrimidin-2-yl)piperidin-4-yl)cyclopropyl)ethoxy)-2-fluorophenyl)imidazolidin-2-one] |
| 8.02 | CC(C)c1noc(N2CCC([C@H]3C[C@@H]3CCOc3ccc(CC(=O)N4CCC4)cc3F)CC2)n1 [Example 74, 1-(azetidin-1-yl)-2-(3-fluoro-4-(2-((1R,2R)-2-(1-(3-isopropyl-1,2,4-oxadiazol-5-yl)piperidin-4-yl)cyclopropyl)ethoxy)phenyl)ethanone] |
| 8.06 | CCc1cnc(N2CCC([C@H]3C[C@@H]3CCOc3ccc(S(C)(=O)=O)cc3F)CC2)nc1 [Example 28, 5-ethyl-2-(4-((1R,2R)-2-(2-(2-fluoro-4-(methylsulfonyl)phenoxy)ethyl)cyclopropyl)piperidin-1-yl)pyrimidine] |
| 8.06 | CCc1cnc(N2CCC([C@@H]3C[C@H]3CCOc3ccc(-n4cnnn4)c(F)c3)CC2)nc1 [Example 39, 5-ethyl-2-(4-((1S,2S)-2-(2-(3-fluoro-4-(1H-tetrazol-1-yl)phenoxy)ethyl)cyclopropyl)piperidin-1-yl)pyrimidine] |
| 8.70 | CC1(OC(=O)N2CCC([C@@H]3C[C@H]3CCOc3cc(F)c(CC(=O)N4CCC4)c(F)c3)CC2)CC1 [Example 101, 1-methylcyclopropyl 4-((1S,2S)-2-(2-(4-(2-(azetidin-1-yl)-2-oxoethyl)-3,5-difluorophenoxy)ethyl)cyclopropyl)piperidine-1-carboxylate] |
| 9.15 | CC1(OC(=O)N2CCC([C@H]3C[C@@H]3CCOc3cc(F)c(CC(=O)N4CCC4)c(F)c3)CC2)CC1 [Example 103, 1-methylcyclopropyl 4-((1R,2R)-2-(2-(4-(2-(azetidin-1-yl)-2-oxoethyl)-3,5-difluorophenoxy)ethyl)cyclopropyl)piperidine-1-carboxylate] |
| 9.17 | CC(C)c1noc(N2CCC([C@H]3C[C@@H]3CCOc3cc(F)c(CC(=O)N(C)C)c(F)c3)CC2)n1 [Example 81, 2-(2,6-difluoro-4-(2-((1R,2R)-2-(1-(3-isopropyl-1,2,4-oxadiazol-5-yl)piperidin-4-yl)cyclopropyl)ethoxy)phenyl)-N,N-dimethylacetamide] |
| 9.26 | CC(C)c1noc(N2CCC([C@H]3C[C@@H]3CCOc3cc(F)c(CC(=O)N4CCC4)c(F)c3)CC2)n1 [Example 79, 1-(azetidin-1-yl)-2-(2,6-difluoro-4-(2-((1R,2R)-2-(1-(3-isopropyl-1,2,4-oxadiazol-5-yl)piperidin-4-yl)cyclopropyl)ethoxy)phenyl)ethanone] |
| 9.29 | CC(C)c1noc(N2CCC([C@@H]3C[C@H]3CCOc3cc(F)c(CC(=O)N4CCC4)c(F)c3)CC2)n1 [Example 82, 1-(azetidin-1-yl)-2-(2,6-difluoro-4-(2-((1S,2S)-2-(1-(3-isopropyl-1,2,4-oxadiazol-5-yl)piperidin-4-yl)cyclopropyl)ethoxy)phenyl)ethanone] |
